According to patent publication US9321768B2, “Indoles as respiratory syncytial virus antiviral agents” (JANSSEN SCIENCES IRELAND UC, priority 2010, dated 2016):
Read-outs that look alike come from different tables or passages of the source.

Columns and labels:
[1] = system: rgRSV224 virus; assay: microbe, parasite or virus in culture; type: cell-based, respiratory syncytial virus (RSV); conditions: for EC50: read-out: WT activity EC50; for SI CC50/EC50: ratio of HeLa CC50 to rgRSV224 EC50
Method: (§1) Black 96-well clear-bottom microtiter plates (Corning, Amsterdam, The Netherlands) were filled in duplicate using a customized robot system with serial 4-fold dilutions of compound in a final volume of 50 μl culture medium [RPMI medium without phenol red, 10% FBS, 0.04% gentamycin (50 mg/ml) and 0.5% DMSO]. Then, 100 μl of a HeLa cell suspension (5×10^4 cells/ml) in culture medium was added to each well followed by the addition of 50 μl rgRSV224 (MOI=0.02) virus in culture medium using a multidrop dispenser (Thermo Scientific, Erembodegem, Belgium). rgRSV224 virus is an engineered virus that includes an additional GFP gene (Hallak et al, 2000) and was in-licensed from the NIH (Bethesda, Md., USA). Medium, virus- and mockinfected controls were included in each test. Cells were incubated at 37° C. in a 5% CO2 atmosphere. Three days post-virus exposure, viral replication was quantified by measuring GFP expression in the cells by a MSM laser microscope (Tibotec, Beerse, Belgium). The EC50 was defined as the 50% inhibitory concentration for GFP expression. In parallel, compounds were incubated for three days in a set of white 96-well microtitier plates (Corning) and the cytotoxicity of compounds in HeLa cells was determined by measuring the ATP content of the cells using the ATPlite kit (PerkinElmer, Zaventem, Belgium) according to the manufacturer's instructions. The CC50 was defined as the 50% concentration for cytotoxicity.

[2] = Cytotoxicity in HeLa cells, ATP content (ATPlite kit); type: cell-based; conditions: human
Method: as §1

[3] = human respiratory syncytial virus, HeLa, 72 h
[4] = rgRSV224 (MOI=0.02) in HeLa cells, GFP expression three days post-virus exposure

Structure (SMILES) | EC50 [1, 3] [nM] | CC50 at 3 days [2] [nM] | CC50 at 3 days ([2]; HeLa cells, three days incubation, ATP content, read-out: Toxicity CC50) [nM] | SI CC50/EC50 [1] | EC50 [1, 4] [nM]
CS(=O)(=O)CCCn1c(Cn2c(=O)n(C3CC3)c3ccncc32)cc2cc(Cl)ccc21 [Compound 1, 3-((5-Chloro-1-(3-(methylsulfonyl)propyl)-1H-indol-2-yl)methyl)-1-cyclopropyl-1H-imidazo[4,5-c]pyridin-2(3H)-one] | 0.286 | > 9840 |  |  | 
CS(=O)(=O)CCCn1c(Cn2c(=O)n(C3CC3)c3ccncc32)cc2cc(Br)ccc21 [Compound 2, 3-((5-bromo-1-(3-(methylsulfonyl)propyl)-1H-indol-2-yl)methyl)-1-cyclopropyl-1H-imidazo[4,5-c]pyridine-2(3H)-one] | 0.288 | > 9840 |  |  | 
N#CCCCCn1c(Cn2c(=O)n(C3CC3)c3ccncc32)cc2cc(Br)ccc21 [Compound 3, 5-((5-bromo-2-(1-cyclopropyl-2-oxo-1H-imidazo[4,5-c]pyridin-3(2H)-yl)methyl)-1H-indol-1-yl)pentanenitrile] | 0.452 | > 9840 |  |  | 
O=c1n(Cc2cc3cc(Br)ccc3n2CCCCO)c2cnccc2n1C1CC1 [Compound 4, 3-((5-bromo-1-(4-hydroxybutyl)-1H-indol-2-yl)methyl)-1-cyclopropyl-1H-imidazo[4,5-c]pyridin-2(3H)-one] | 1.12 |  | 48700 |  | 
CS(=O)(=O)CCCn1c(Cn2c(=O)n(C3COC3)c3ccncc32)cc2cc(Br)ccc21 [Compound 5, 3-((5-Bromo-1-(3-(methylsulfonyl)propyl)-1H-indol-2-yl)methyl)-1-(oxetan-3-yl)-1H-imidazo[4,5-c]pyridin-2(3H)-one] | 1.56 | > 9840 |  |  | 
CS(=O)(=O)CCCn1c(Cn2c(=O)n(C3CC3)c3ccc(F)cc32)cc2cc(Br)ccc21 [Compound 6, 3-((5-Bromo-1-(3-(methylsulfonyl)propyl)-1H-indol-2-yl)methyl)-1-cyclopropyl-5-fluoro-1H-benzo[d]imidazol-2(3H)-one] | 1.6 | > 9840 |  |  | 
O=c1n(Cc2cc3cc(Cl)ccc3n2CCCCO)c2cnccc2n1C1CC1 [Compound 7, 3-((5-Chloro-1-(4-hydroxybutyl)-1H-indol-2-yl)methyl)-1-cyclopropyl-1H-imidazo[4,5-c]pyridin-2(3H)-one] | 2.24 | 47600 |  |  | 
CS(=O)(=O)CCCn1c(Cn2c(=O)n(C3CC3)c3ccc(F)cc32)cc2cc(Cl)ccc21 [Compound 8, 3-((5-Chloro-1-(3-(methylsulfonyl)propyl)-1H-indol-2-yl)methyl)-1-cyclopropyl-5-fluoro-1H-benzo[d]imidazol-2(3H)-one] | 3.79 | > 9840 |  |  | 
O=c1n(Cc2cc3cc(F)ccc3n2CCCCO)c2cnccc2n1C1CC1 [Compound 9, 1-Cyclopropyl-3-((5-fluoro-1-(4-hydroxybutyl)-1H-indol-2-yl)methyl)-1H-imidazo[4,5-c]pyridin-2(3H)-one] | 29.4 | 50300 |  |  | 
COc1ccc2c(c1)cc(Cn1c(=O)n(C3CC3)c3ccncc31)n2CCCCO [Compound 10, 1-Cyclopropyl-3-((1-(4-hydroxybutyl)-5-methoxy-1H-indol-2-yl)methyl)-1H-imidazo[4,5-c]pyridin-2(3H)-one] | 38.3 | > 9840 |  |  | 
CC(C)CCn1c(Cn2c(=O)n(C3CC3)c3ccncc32)cc2ccccc21 [Compound 12, 1-cyclopropyl-3-((1-isopentyl-1H-indol-2-yl)methyl)-1H-imidazo[4,5-c]pyridin-2(3H)-one] | 361 | 65500 |  |  | 
CS(=O)(=O)CCCn1c(Cn2c(=O)n(C3CC3)c3ccncc32)cc2cc(F)ccc21 [Compound P20] |  |  |  | 15206 | 4.07
CS(=O)(=O)CCCn1c(Cn2c(=O)n(C3CC3)c3ccccc32)cc2cc(Br)ccc21 [Compound P21] |  |  |  | 6322 | 3.88
CS(=O)(=O)CCCn1c(Cn2c(=O)n(C3COC3)c3ccncc32)cc2cc(F)ccc21 [Compound P22] |  |  |  | >4200 | 23.8
CS(=O)(=O)CCCn1c(Cn2c(=O)n(C3CC3)c3ccncc32)cc2cc(C(F)(F)F)ccc21 [Compound P23] |  |  |  | 6557 | 7.37
CS(=O)(=O)CCCn1c(Cn2c(=O)n(C3COC3)c3ccncc32)cc2ccccc21 [Compound P24] |  |  |  | >3065 | 32.6
CS(=O)(=O)CCCn1c(Cn2c(=O)n(C3CC3)c3ccncc32)cc2ccccc21 [Compound P25] |  |  |  | >10945 | 9.14
CS(=O)(=O)CCCn1c(Cn2c(=O)n(C3CC3)c3ccccc32)cc2cc(F)ccc21 [Compound P26] |  |  |  | 2270 | 22.6
CS(=O)(=O)CCCn1c(Cn2c(=O)n(C3CC3)c3ccc(F)cc32)cc2cc(F)ccc21 [Compound P27] |  |  |  | 664 | 36
CS(=O)(=O)CCCn1c(Cn2c(=O)n(C3CC3)c3ccccc32)cc2ccccc21 [Compound P28] |  |  |  | 184 | 348
O=c1n(Cc2cc3cc(F)ccc3n2CCCCF)c2cnccc2n1C1CC1 [Compound P29] |  |  |  | 2149 | 13.8
O=c1n(Cc2cc3cc(Cl)ccc3n2CCCCF)c2cnccc2n1C1CC1 [Compound P30] |  |  |  | 24457 | 0.733

Structure (SMILES) | EC50 [1, 3] [nM] | CC50 at 3 days [2] [nM] | CC50 at 3 days ([2]; HeLa cells, three days incubation, ATP content, read-out: Toxicity CC50) [nM] | SI CC50/EC50 [1] | EC50 [1, 4] [nM]
O=c1n(Cc2cc3cc(Br)ccc3n2CCCC(F)(F)F)c2ccccc2n1C1CC1 [Compound P31] |  |  |  | 3446 | 12.1
O=c1n(Cc2cc3cc(Br)ccc3n2CCCC(F)(F)F)c2cnccc2n1C1CC1 [Compound P32] |  |  |  | 53514 | 0.34
N#CCCCn1c(Cn2c(=O)n(C3CC3)c3ccncc32)cc2cc(Cl)ccc21 [Compound P33] |  |  |  | 190625 | 0.266
O=c1n(Cc2cc3cc(F)ccc3n2CCCCF)c2ccccc2n1C1CC1 [Compound P34] |  |  |  | >398 | 251
N#CCCCn1c(Cn2c(=O)n(C3CC3)c3ccccc32)cc2cc(Cl)ccc21 [Compound P35] |  |  |  | 5353 | 3.14
CS(=O)(=O)CCCn1c(Cn2c(=O)n(C3CC3)c3ccccc32)cc2cc(Cl)ccc21 [Compound P40] |  |  |  | >29923 | 2.94
COc1ccc2c(c1)n(Cc1cc3cc(F)ccc3n1CCCS(C)(=O)=O)c(=O)n2C1CC1 [Compound P41] |  |  |  | 886 | 63.4
CS(=O)(=O)CCCn1c(Cn2c(=O)n(CC(F)(F)F)c3ccc(F)cc32)cc2cc(Cl)ccc21 [Compound P50] |  |  |  | 5176 | 4.8
NC(=O)c1c(Cn2c(=O)n(C3CC3)c3ccncc32)n(CCCCF)c2ccc(Cl)cc12 [Compound P54, 5-chloro-2-((1-cyclopropyl-2-oxo-1H-imidazo[4,5-c]pyridin-3(2H)-yl)methyl)-1-(4-fluorobutyl)-1H-indole-3-carboxamide] | 0.0528 |  |  | >603587 | 
CS(=O)(=O)CCCn1c(Cn2c(=O)n(CC(F)(F)F)c3ccncc32)cc2cc(Cl)ccc21 [Compound P55] |  |  |  | >258982 | < 0.157
O=c1n(Cc2cc3cc(Cl)ccc3n2CCCN2CCOCC2)c2cnccc2n1C1CC1 [Compound P58] |  |  |  | 7416 | 5.8
N#CCCCn1c(Cn2c(=O)n(CC(F)(F)F)c3ccncc32)cc2cc(Cl)ccc21 [Compound P62] |  |  |  | 81459 | 0.539
NC(=O)c1c(Cn2c(=O)n(C3CC3)c3ccc(F)cc32)n(CCCCF)c2ccc(Cl)cc12 [Compound P63] |  |  |  | >89869 | 1.11
CNC(=O)c1c(Cn2c(=O)n(C3CC3)c3ccncc32)n(CCCC(F)(F)F)c2ccc(Cl)cc12 [Compound P64] |  |  |  | >3896 | 6.42
NC(=O)c1c(Cn2c(=O)n(C3CC3)c3ccc(F)cc32)n(CCCC(F)(F)F)c2ccc(Cl)cc12 [Compound P65] |  |  |  | >45348 | 1.1
O=c1n(Cc2cc3cc(Cl)ccc3n2CCCCF)c2cnccc2n1C1COC1 [Compound P66] |  |  |  | 21581 | 1.25
O=c1n(Cc2cc3cc(Cl)ccc3n2CCCC(F)(F)F)c2cnccc2n1C1COC1 [Compound P67] |  |  |  | >85461 | 1.25
O=C(NC1CC1)c1c(Cn2c(=O)n(C3CC3)c3ccncc32)n(CCCC(F)(F)F)c2ccc(Cl)cc12 [Compound P68] |  |  |  | 249 | 12.6
CC(C)(O)CCCn1c(Cn2c(=O)n(C3CC3)c3ccncc32)cc2cc(Cl)ccc21 [Compound P72] |  |  |  | 24273 | 1.58
CC(C)(O)CCCn1c(Cn2c(=O)n(C3COC3)c3ccncc32)cc2cc(Cl)ccc21 [Compound P73] |  |  |  | 15070 | 3.16
CC(C)(O)CCCn1c(Cn2c(=O)n(CC(F)(F)F)c3ccncc32)cc2cc(Cl)ccc21 [Compound P74] |  |  |  | 15708 | 3.16
